Data set [1] relates to unmyelinated primary afferent sensory nerves. To be noted: rat, in vivo.
The subject of data set [2] is injured nerve (sensory nerves). To be noted: rat, in vivo.
For data set [3] the following is noted: in vivo; cited from earlier work.
Data set [4] concerns neuronal nAChR. In kind it is cell-based, bovine.
The subject of data set [5] is nAChR. In kind it is binding, bovine.
The test system of data set [6] is rats with chronic constriction injury. To be noted: rat, in vivo.
For data set [7] the following is noted: rat, in vivo.
For data set [8] the following is noted: rat, in vivo. The source holds these as a separate data set.

“Also recorded” adds a separate entry of the source.

Regarding `CSCC[C@@H]1NC(=O)[C@H](CC(C)C)NC(=O)[C@H](CCCNC(=N)N)NC(=O)[C@H](CO)NC(=O)[C@@H]2CSSC[C@@H]3NC(=O)[C@H](CO)NC(=O)CNC(=O)[C@H]([C@@H](C)O)NC(=O)[C@H](CSSC[C@H](N)C(=O)N[C@@H](CCCCN)C(=O)NCC(=O)N[C@@H](CCCCN)C(=O)NCC(=O)N[C@@H](C)C(=O)N[C@@H](CCCCN)C(=O)N2)NC(=O)[C@H](CSSC[C@@H](C(N)=O)NC(=O)[C@H](CCCCN)NC(=O)CNC(=O)[C@H](CO)NC(=O)[C@H](CCCNC(=N)N)NC3=O)NC(=O)[C@H](CC(=O)O)NC(=O)[C@H](Cc2ccc(O)cc2)NC1=O` [MVIIA], in data set [1], the “inhibition of the vascular response to LFES of sensory nerves” value is recorded as “significant inhibition; also recorded: more effective”. In data set [2], the “recovery of vascular response to substance P compared to control” value is reported as 54%. In addition, the “potency relative to morphine” value in data set [3] is 1000 times.
For “G C C S H P A C Y A N N Q D Y C-NH2 [An1.1]”, in data set [4], the “inhibition of the neuronal nicotinic response in cultured BCCs (comparison)” value is “not nearly as inhibitory as Vc1.1”, the “nature of the inhibition of nicotine-evoked catecholamine release” value is “competitive inhibitor” and the “protection against nicotinic receptor desensitisation” value is reported as “protects against nicotinic receptor desensitisation”.
Regarding “GCCSD4 -HypRCNYDHPgammacarboxy-GluIC-NH2 [Vc1.1ptm]”, in data set [5], the “displacement of 3H-epibatidine binding” value is listed as “displaced the first component, but did not significantly displace the second component”. In addition, the “long-term effectiveness in inhibiting neuropathic pain” value in data set [6] is “without effect; also recorded: but not Vc1.1ptm was effective”. In addition, the “inhibition of sensory nerve activity (comparison)” value in data set [1] is “less effective than Vc1.1”. In data set [2], the “recovery of vascular response to substance P compared to control” value was 85%.
As to `CC[C@H](C)[C@@H]1NC(=O)[C@H](CCC(=O)O)NC(=O)[C@@H]2CCCN2C(=O)[C@H](Cc2cnc[nH]2)NC(=O)[C@H](CC(=O)O)NC(=O)[C@H](Cc2ccc(O)cc2)NC(=O)[C@H](CC(N)=O)NC(=O)[C@@H]2CSSC[C@H](NC(=O)CN)C(=O)N[C@@H](CSSC[C@@H](C(N)=O)NC1=O)C(=O)N[C@@H](CO)C(=O)N[C@@H](CC(=O)O)C(=O)N1CCC[C@H]1C(=O)N[C@@H](CCCNC(=N)N)C(=O)N2` [Vc1.1, GCCSDPRCNYDHPEIC-NH2], the “effect upon systemic blood pressure” value in data set [7] is “no effect”. Also, the adverse side-effects result in data set [8] is “not observed any adverse side-effects”.

Values taken from patent publication US7348400B2 (priority 2001, dated 2008).
